Data: patent US20250313653A1, “GUEST/HOST INCLUSION COMPLEXES CONTAINING S-NITROSOGLUTATHIONE AND METHODS OF USE THEREOF” (VIRGINIA COMMONWEALTH UNIVERSITY, priority 2022, published 2025)
In brackets after ≈: the same amount, converted by molar mass.

Tests used:
[1] = NO release from silicone rubber tubes filled with lock solutions; format: physicochemical; settings: silicone tube filled with 0.1 M GSNO without or with 0.1 M αCD, 37° C.
Protocol: (§1) The NO release was quantified by an ECO PHYSICS NO analyzer (nCLD 66). […] of castor oil was added to NO release solutions as an antifoam agent when 3 mL GSNO or GSNO-CD solutions were tested in an amber glass cell at 37° C. Humidified air was vacuumed into the solution to carry NO continuously into the chemiluminescence detection chamber at a flow rate of 100 cm^3/min. The solutions were stored in sealed amber glass vials between measurements at 37° C. To monitor the NO release from catheters, solutions were filled into 2.5 cm-long medical-grade silicone tubes (HelixMark® 60-011-07, 1.58 mm ID, 2.41 mm OD) that were scaled on both ends with plastic rods. The filled tubes were placed into the amber glass cell containing 5 mL of 0.01 M PBS with 0.1 mM EDTA (PBSE) at 37° C. N2 was used as the carrier gas at a flow rate of 100 cm^3/min to introduce NO into the analyzer. Filled tubes were stored in 10 mL PBSE at 37° C. in the dark between measurements. The soaking PBSE solution was refreshed after each measurement.

[2] = NO release from GSNO solutions (chemiluminescence NO analyzer); format: physicochemical; settings: 3 mL of 0.1 M GSNO solution with or without an equal mole of αCD, 37° C.
Protocol: as §1

[3] = at low pH; cited from earlier work
S. aureus = test: Prevention of extraluminal biofilm on silicone catheters; format: cell-based; settings: 3-day experiments, 0.1 M GSNO without or with 0.1 M αCD as lock solution, 37° C.
Protocol: Both biofilm and planktonic bacteria were quantified to evaluate the antibacterial activities of the proposed method. LB medium (25 mg/mL) was used to culture all bacterial strains overnight before performing the antibacterial tests. Segments of medical-grade silicone tubes were all autoclaved. Lock solutions were freshly prepared using the sterilized buffer and filtered through a 0.22 m PES syringe filter. The biofilms on the silicone surface were dip-rinsed 5 times in PBS and detached by 1-min vertexing, 1-min sonication (20% power of a 150 W probe sonifier, Branson Ultrasonics), and another 1-min vertexing for plate counting. When quantifying the planktonic bacteria, the suspension was homogenized by 1-min vertexing. […] After plate incubation at 37° C. overnight, colony-forming units (CFU) of bacteria were counted and converted to CFU/cm^2 for biofilm quantification and CFU/mL for planktonic bacteria quantification. […] In our case, the limit of detection (LOD) is 400 CFU/cm^2 for biofilm quantification and 200 CFU/mL for quantification of planktonic bacteria. […] The statistical significance between groups was determined using a student's t-test.
The overnight S. aureus culture was diluted by LB (0.25 mg/mL) medium to approximately 10^3 CFU/mL. […] The viable bacteria on the outer surface were counted following the treatment.

Compound: N[C@@H](CCC(=O)N[C@@H](CSN=O)C(=O)NCC(=O)O)C(=O)O [GSNO, S-nitrosoglutathione]
- initial release of NO on day 0 [1]: 14.8×10^−10 mol cm^−2 min^−1
- duration of NO release over 0.1×10^−10 mol cm^−2 min^−1 from the catheter exterior ([1]; in pH 7.4 PBSE): 6 days
- duration of NO release [2]: 6 days
- aqueous solubility [3]: 0.075 M (≈ 25.2 mg/mL)
- reduction of bacterial biofilm on the outer catheter surface compared to control solutions (S. aureus): 70%
